Like-named read-outs stand apart in the source and are kept apart here.
Assays:
MCF-7 cells = test: In vitro laser photothermal therapy of MCF-7 cells; format: cell-based, human; conditions: MCF-7, 0.5 μM, 24 h
Protocol: Following this incubation, cell cultures ere gently rinsed in sterile DPBS buffer and replaced with unmodified growth media prior to laser photothermal treatment. Laser photothermal treatment was performed using the 514.5 nm line of an argon ion laser (Innova 300 Coherent) for 2 min at room temperature (0.32 cm^2). Control cells were similarly removed, however, were untreated with the laser.

[1] = cited from earlier work
[2] = system: ERα(+) MCF-7 breast cancer cells; test: Cell viability assay (MTT or XTT) in ERα(+) MCF-7 breast cancer cells; format: cell-based, human; conditions: conjugate as effective TAM-PEG-SH ligand concentration, read-out: IC50 (50% inhibitory concentration), cell viability
Protocol: Cell culture and nanoparticle incubation. ERα(−) MDA-MB-231 and ERα(+) MCF-7 breast cancer cells (human adenocarcinoma, ATCC) or ERα(+) human squamous cell carcinoma (43-45) (HSC-3) cells were cultured to 10^5 cells/cm^2 in DMEM growth media supplanted with 10% v/v heat-inactivated fetal bovine serum, penicillin (100 U/ml), streptomycin (100 μg/ml), 4.5 g/L glucose, […], without L-glutamine and phenol red at 37° C. in a 5% CO2 humidified atmosphere. Growth media was removed from the cell cultures and replaced with identical media containing gold nanoparticle conjugates heated to 37° C. at time=0 h.
Cell viability assay. Following incubation, growth media containing gold nanoparticle conjugates was removed and cells were rinsed twice in sterile Dulbecco's phosphate buffered saline (DPBS). Mitochondrial dehydrogenase activity was assessed by MTT or XTT spectrophotometric assay (Sigma TOX1, TOX2) following the manufacturer's instructions. The assay was performed using a SpectraMax Plus 384 microplate reader and statistical analysis was performed by t-test.

Row | Compound | in vitro cytotoxicity in the absence of laser treatment (MCF-7 cells) | steady-state blood plasma concentration ([1]; tamoxifen administered at 10 mg/day) [µM] | steady-state blood plasma concentration ([1]; tamoxifen administered at 20 mg/day) [µM] | IC50 ([2]; MCF-7, 24 h incubation) [nM] | IC50 ([2]; MCF-7, 36 h incubation) [nM] | IC50 ([2]; MCF-7, 48 h incubation) [nM]
1 | CC/C(=C(\c1ccccc1)c1ccc(OCCN(C)C)cc1)c1ccccc1 [tamoxifen] | no appreciable in vitro cytotoxicity | 0.40 | 0.81 |  |  | 
2 | Thiol-pegylated tamoxifen [TAM-PEG-SH] |  |  |  | 3600 | 1400 | 1100

From patent publication US20110077581A1, “TARGETED CELLULAR DELIVERY OF NANOPARTICLES” (GEORGIA TECH RESEARCH CORPORATION, priority 2009, published 2011)
